The record followed here is ChEMBL document CHEMBL1130369, “Design, syntheses and potentiating activities against methicillin resistant Staphylococcus aureus of cyclic analogs of LY301621” (1997).

The test system of assay [1] is Staphylococcus aureus. Description: Minimal synergizing concentration required to inhibit growth of Staphylococcus aureus strain 447 in the presence of 4 ug/mL of methicillin. It counts as functional.
Assay [2] relates to Staphylococcus aureus. Description: Minimum concentration required to inhibit growth of methicillin sensitive Staphylococcus aureus strain 446. The format is functional.
Assay [3] has as its system Staphylococcus aureus. Description: Ability of 40 ug to enlarge the zone of inhibition produced by 100 microg of methicillin in disk assay using Staphylococcus aureus strain 447; No synergy. The format is functional, organism-based.
The subject of assay [4] is Staphylococcus aureus. Description: Ability of 40 ug to enlarge the zone of inhibition produced by 100 microg of methicillin in disk assay using Staphylococcus aureus strain 447; synergy. The format is functional, organism-based.
In assay [5] the test system is Staphylococcus aureus. Description: Ability of 40 ug to enlarge the zone of inhibition produced by 100 microg of methicillin in disk assay using Staphylococcus aureus strain 447; Synergy. It counts as functional, organism-based.
Assay [6] concerns Staphylococcus aureus. Description: Minimum concentration required to inhibit growth of methicillin resistant Staphylococcus aureus strain 447. It counts as functional.
[7] abbreviates: Staphylococcus aureus, read-out: MIC.

In the case of `O=C1N[C@@H](C(c2ccccc2)c2ccccc2)C(=O)N2CCC[C@@H]2C(=O)NCc2ccccc2-c2ccccc21`, the MSC in the assay on Staphylococcus aureus [1] is >100 µg/mL. In addition, the MIC in the assay with Staphylococcus aureus [2] (setting [7]) was > 100 µg/mL. Also, the Synergy with methicillin entry in the assay on Staphylococcus aureus [3] is “No synergy”.
For `O=C(N[C@@H](C(=O)N1CCC[C@H]1C(=O)N[C@H](CO)Cc1ccccc1)C(c1ccccc1)c1ccccc1)OCc1ccccc1`, the Synergy with methicillin entry with Staphylococcus aureus [4] is listed as “synergy”. For the same compound, the MSC with Staphylococcus aureus [1] worked out at 12.5 µg/mL. The MIC with Staphylococcus aureus [2] (setting [7]) was > 100 µg/mL.
With `O=C1N[C@@H](C(c2ccccc2)c2ccccc2)C(=O)N2CCCC2C(=O)N[C@](CO)(Cc2ccccc2)C(=O)Nc2ccccc21` (single isomer, unassigned), the Synergy with methicillin result with Staphylococcus aureus [5] was “Synergy”. In addition, in the assay on Staphylococcus aureus [6], the minimal inhibitory concentration (MIC) is >128 µg/mL. The MSC in the assay on Staphylococcus aureus [1] was >128 µg/mL.
With `O=C1N[C@@H](C(c2ccccc2)c2ccccc2)C(=O)N2CCCC2C(=O)N[C@@](CO)(Cc2ccccc2)C(=O)Nc2ccccc21` (single isomer, unassigned), in the assay with Staphylococcus aureus [1], the MSC was >128 µg/mL. Besides, the MIC in the assay on Staphylococcus aureus [2] is >128 µg/mL.
With `O=C1N[C@@H](C(c2ccccc2)c2ccccc2)C(=O)N2CCCC2C(=O)NC(CO)(Cc2ccccc2)C(=O)Nc2ccccc21` (single isomer, unassigned; 1a) [listing 1 of 2 here], the MIC in the assay with Staphylococcus aureus [6] (setting [7]) was > 100 µg/mL; in the assay with Staphylococcus aureus [2] (setting [7]), > 128 µg/mL. The MSC in the assay on Staphylococcus aureus [1] was >100 µg/mL.
`O=C1N[C@@H](C(c2ccccc2)c2ccccc2)C(=O)N2CCCC2C(=O)NC(CO)(Cc2ccccc2)C(=O)Nc2ccccc21` (single isomer, unassigned; 1a) [listing 2 of 2 here]: the Synergy with methicillin entry in the assay with Staphylococcus aureus [3] was “No synergy”.
Regarding `O=C1N[C@@H](C(c2ccccc2)c2ccccc2)C(=O)N2CCCC2C(=O)NC(CO)(Cc2ccccc2)C(=O)Nc2ccccc21` (single isomer, unassigned; 1b) [listing 1 of 2 here], the MSC with Staphylococcus aureus [1] was 100 µg/mL. Besides, the MIC in the assay on Staphylococcus aureus [2] (setting [7]) is > 100 µg/mL.
As to `O=C1N[C@@H](C(c2ccccc2)c2ccccc2)C(=O)N2CCCC2C(=O)NC(CO)(Cc2ccccc2)C(=O)Nc2ccccc21` (single isomer, unassigned; 1b) [listing 2 of 2 here], the Synergy with methicillin result in the assay on Staphylococcus aureus [5] is reported as “Synergy”.

As usually defined, the MIC is the lowest concentration that inhibits growth of the organism.
